Test results as given in US10934280B2, “Condensed thiophene derivatives useful as NaPi-IIb inhibitors” (Eli Lilly and Company, priority 2016, dated 2021).
Counter-ions that a name gives are not always drawn.

Key:
NaPi-IIb = target: T1, NaPi-IIb (Mus musculus, UniProt Q9DBP0); assay: Inhibition of NaPi-IIb in vivo: plasma counts after oral radioactive phosphate in mice
T1 construct: from tissue; host or cells: living C57Bl6 mice (gastrointestinal tract)
T1 sequence (Q9DBP0 1-697): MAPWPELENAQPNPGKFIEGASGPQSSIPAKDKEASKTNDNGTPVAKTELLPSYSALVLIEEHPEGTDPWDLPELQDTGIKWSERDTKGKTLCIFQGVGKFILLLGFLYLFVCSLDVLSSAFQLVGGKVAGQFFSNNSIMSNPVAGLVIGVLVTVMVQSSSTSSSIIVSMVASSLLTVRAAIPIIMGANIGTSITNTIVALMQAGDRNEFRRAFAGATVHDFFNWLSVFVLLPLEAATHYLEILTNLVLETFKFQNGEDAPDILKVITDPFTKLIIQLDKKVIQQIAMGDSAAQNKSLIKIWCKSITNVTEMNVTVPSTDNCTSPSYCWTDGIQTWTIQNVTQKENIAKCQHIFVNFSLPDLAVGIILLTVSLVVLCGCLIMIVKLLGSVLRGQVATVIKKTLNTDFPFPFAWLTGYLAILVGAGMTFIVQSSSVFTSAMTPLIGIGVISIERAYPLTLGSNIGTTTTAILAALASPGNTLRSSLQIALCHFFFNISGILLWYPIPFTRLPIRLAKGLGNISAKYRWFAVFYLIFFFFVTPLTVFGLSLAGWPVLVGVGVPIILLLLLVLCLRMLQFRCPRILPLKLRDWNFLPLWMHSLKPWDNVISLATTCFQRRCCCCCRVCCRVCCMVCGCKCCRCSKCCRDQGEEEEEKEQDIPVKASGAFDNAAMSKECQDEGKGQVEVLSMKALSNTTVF
Experimental: For test article and vehicle control preparation, add vehicle, 20% hydroxypropyl-beta-cyclodextrin (HPBCD) in water, to the test article. Sonicate to reduce particle size in an ultrasonic water bath as needed. If necessary, use a polytron to break down any visible particles in test article solution. The pH of the vehicle control is adjusted to 8.0 to 8.5 with 1N NaOH.
Radioactive phosphate preparation: Prepare a 16.25 mM Na2HPO4 solution using 0.9% saline as the vehicle. Mix until a clear solution is formed. Adjust pH to approximately 7.4. Filter using a sterile 0.2 μm polyethersulfone membrane. For the final preparation of the radioactive phosphate dosing solution, add 0.5 μl of stock H3^3PO4 per 1 mL of Na2HPO4. Mix thoroughly then sterile filter the H3^33PO4+Na2HPO4 solution using a 0.2 μm polyethersulfone membrane prior to dosing. Measure the radioactivity of each sample with the scintillation counter. If the DPMs are between 100,000 and 150,000 proceed with dosing.
In-vivo protocol: Male C57B16 male mice at the age of about 8-9 wks old are fasted for 16 hrs the day before the study. They are assigned to treatment groups based on body weight on the day of study. Mice are dosed orally with either the test article, prepared as described above, or vehicle control at a 10 mis/kg dose volume. Fifteen minutes later, the radioactive phosphate dosing solution is given by oral gavage. Fifteen minutes later, blood is collected by orbital bleed. Plasma is prepared and 50 μl of EDTA plasma from each mouse is mixed with 10 ml of scintillation fluid and the counts determined by scintillation counting. The effect of the test article is determined by comparing the counts in the plasma from the test article treated animals to counts in the plasma of the vehicle control treated animals [Percent Inhibition=[…]]. Percent inhibition is measured at 30 minutes post administration of the compound or vehicle, and at 15 minutes post administration of the labelled phosphate. Percent Inhibition for indicated Examples are illustrated in Table 3 below.
Alternative vehicles, for example poly-1-vinylpyrrolidone-co-vinyl acetate (PVP-VA), at varying concentrations, may be used. Example 1 can be assayed in PVP-VA, and for this study the compound is formulated as described in the solid dispersion preparation of Example 1, followed by dissolving in water then dosing by oral gavage. The vehicle control is water with varying concentrations of PVP-VA, matching the concentration found in the highest dose of Example 1, the lowest dose of Example 1, and an intermediate dose of Example 1. No effect of varying PVP-VA on the uptake of radiolabeled phosphate is observed over several studies, and thus all the vehicles are averaged to calculate percent inhibition.

murine NaPi-IIb = target: T2, murine NaPi-IIb (Mus musculus, UniProt Q9DBP0); assay: Inhibition of 33P uptake in mouse NaPi-IIb T-REX-CHO stable cell line; format: cell-based; details: 60 min at RT, geometric mean (SD), read-out: m NaPi-IIb rel IC50 (nM), (SD)
T2 construct: expressed in transfected cells
T2 sequence (Q9DBP0 1-697): T1 sequence (Q9DBP0 1-697)
Experimental: Inhibition of ^33P uptake is measured in human and mouse NaPi-IIb T-REX™-CHO stable cell lines. cDNA for NaPi-IIb is subcloned in plasmid SLC34A2 pcDNA5/TO (human) and SLC34A2 pcDNA5/TO (mouse) and stable cell lines are generated from clonal isolation for both human and mouse respectively. Mouse and human stable lines are maintained in continuous culture in growth media (Dulbecco's Modified Eagle Medium: Nutrient Mixture F-12 (3:1), 10% Heat Inactivated FBS, 1% penicillin/streptomycin/FUNGIEZONE® (HYCLONE™), 20 mM HEPES, 250 μg/mL hygromycin, 5 μg/mL blasticidin). Cells are harvested from T225 cell culture flasks (CORNING®) using 0.25% Trypsin, and plated in 96 well CYTOSTAR-T™ scintillating microplates (Amersham Systems) at 40,000 cells/well in 100 μL of growth media plus 100 ng/mL of tetracycline. Cell plates are incubated overnight at 37° C. and 5% C02. The next day, compounds are serially diluted using one to three dilutions in 100% DMSO. Cell plates may remain in the incubator until ready to be assayed. A cell plate is removed from the incubator and media removed. Cells are washed 3 times with 200 μL assay buffer (137 mM NaCl, 5.4 mM KCl, 2.8 mM CaCl2), 1.2 mM MgSO4, and 14 mM Tris-HCl buffer, pH˜7.5), removing buffer in between washes. Serially diluted compounds in DMSO are further diluted 50 fold in assay buffer and 50 μL added to the CYTOSTAR-T™ assay plate, immediately followed by the addition of 50 μL of ^33P solution (PERKIN-ELMER®, Walton, Mass.; 0.05 μCi/50 μL). CYTOSTAR-T™ assay plates are covered with foil to protect from light and incubated for 60 min at RT. After the 60 min incubation, 100 μL of a stop solution (assay buffer+400 μM Phloretin) is added to the assay plate to stop ^33P uptake. The plate is immediately read on a Wallac MICROBETA® Trilux liquid scintillation counter and luminometer after stop solution is added with 1 minute count per well. Each plate may be processed separately and staggered in time so there may be no delay in counting after stop solution is added. Percent inhibition at all concentrations tested (final assay concentrations 100-0.005 μM) are calculated relative to 1% DMSO (minimum effect), and the effect of 100 μM of a fully efficacious NaPi-IIb inhibitor (maximum effect). IC50 values were calculated using a 4 parameter logistic curve fitting equation. The numbers presented are the geometric means with standard deviation (SD) calculated where n is the number of runs. Thus. Table 1 describes the relative IC50 values for Examples 1-28 against human NaPi-IIb and murine NaPi-IIb, respectively.

normal rats = assay: Four-day in vivo tolerability/toxicity in normal rats; details: administered in vivo to normal rats for four days
Text: Compounds of the invention, for instance Example 1, show advantageous pharmacological properties, such as potency, in vivo distribution, in vivo efficacy, and favorable lack of toxicity in preclinical testing.

gastric emptying = assay: Effect on gastric emptying in vivo (radiolabeled phosphate recovered from stomach); design: species or system mice
Experimental: The effect of a test compound on gastric emptying can be assessed by dosing the compound and radiolabeled phosphate in a manner similar to that used to assess a compound's ability to inhibit NaPi-IIb in vivo. After bleeding the mice, they were sacrificed and their stomachs harvested. The harvested stomachs are digested in 10 ml of 1N NaOH overnight, and the recovered radiolabeled phosphate DPMs determined by scintillation counting. The compound mediated effect on the rate of gastric emptying is determined by comparing the dpms in the stomach of animals treated with compound, to that of animals treated with vehicle.

[1] = 5 mg/kg oral, 20% HPBCD vehicle, fasted male mice, 30 min post compound, 15 min post labelled phosphate

Structure (SMILES): CC1(C)CN(C(=O)CCC(=O)O)CCN1Cc1cccc(C(=O)Nc2sc3c(c2C(=O)Nc2cc(F)c(CCc4ccc(C(N)=O)cc4)c(F)c2)CCCC3)c1 [Example 8, 4-[4-[[3-[[3-[[4-[2-(4-carbamoylphenyl)ethyl]-3,5-difluoro-phenyl]carbamoyl]-4,5,6,7-tetrahydrobenzothiophen-2-yl]carbamoyl]phenyl]methyl]-3,3-dimethyl-piperazin-1-yl]-4-oxo-butanoic Acid]
- Percent Inhibition (NaPi-IIb; [1]): 60%

Structure (SMILES): COCCCCNC(=O)N1CCN(Cc2cccc(C(=O)Nc3sc4c(c3C(=O)Nc3cc(F)c(CCc5ccc(C(=O)O)cc5)c(F)c3)CCCC4)c2)C(C)(C)C1 [Example 7, 4-[2-[2,6-difluoro-4-[[2-[[3-[[4-(4-methoxybutylcarbamoyl)-2,2-dimethyl-piperazin-1-yl]methyl]benzoyl]amino]-4,5,6,7-tetrahydrobenzothiophene-3-carbonyl]amino]phenyl]ethyl]benzoic Acid]
- IC50 (murine NaPi-IIb): 8.56 nM

Structure (SMILES): CNC(=O)N1C2CCC1CN(Cc1cccc(C(=O)Nc3sc4ccccc4c3C(=O)Nc3cc(F)c(CCc4ccc(C(=O)O)cc4)c(F)c3)c1)C2 [Example 13, 4-[2-[2,6-difluoro-4-[[2-[[3-[[8-(methylcarbamoyl)-3,8-diazabicyclo[3.2.1]octan-3-yl]methyl]benzoyl]amino]benzothiophene-3-carbonyl]amino]phenyl]ethyl]benzoic Acid, Formic Acid Salt]
- IC50 (murine NaPi-IIb): 9 nM

Structure (SMILES): CC1(C)CN(CCCC(=O)O)CCN1Cc1cccc(C(=O)Nc2sc3c(c2C(=O)Nc2cc(F)c(CCc4ccc(C(=O)O)cc4)c(F)c2)CCCC3)c1 [Example 4, 4-[2-[4-[[2-[[3-[[4-(3-carboxypropyl)-2,2-dimethyl-piperazin-1-yl]methyl]benzoyl]amino]-4,5,6,7-tetrahydrobenzothiophene-3-carbonyl]amino]-2,6-difluoro-phenyl]ethyl]benzoic Acid]
- Percent Inhibition (NaPi-IIb; [1]): 52%

Structure (SMILES): CC1(C)CN(C(=O)NCCCCO)CCN1Cc1cccc(C(=O)Nc2sc3c(c2C(=O)Nc2cc(F)c(CCc4ccc(C(=O)O)cc4)c(F)c2)CCCC3)c1 [Example 1, 4-[2-[2,6-difluoro-4-[[2-[[3-[[4-(4-hydroxybutylcarbamoyl)-2,2-dimethyl-piperazin-1-yl]methyl]benzoyl]amino]-4,5,6,7-tetrahydrobenzothiophene-3-carbonyl]amino]phenyl]ethyl]benzoic Acid]
- tolerability (normal rats): generally well tolerated
- toxicity (normal rats): advantageous lack of toxicity
- Percent Inhibition (NaPi-IIb; 0.03 mg/kg oral gavage, PVP-VA solid dispersion formulation in water, mice): 0.75%
- Percent Inhibition (NaPi-IIb; 0.1 mg/kg oral gavage, PVP-VA solid dispersion formulation in water, mice): 30.61%
- Percent Inhibition (NaPi-IIb; 0.3 mg/kg oral gavage, PVP-VA solid dispersion formulation in water, mice): 51.21%
- Percent Inhibition (NaPi-IIb; 1 mg/kg oral gavage, PVP-VA solid dispersion formulation in water, mice): 66.90%
- Percent Inhibition (NaPi-IIb; 3 mg/kg oral gavage, PVP-VA solid dispersion formulation in water, mice): 68.71%
- Percent Inhibition (NaPi-IIb; 10 mg/kg oral gavage, PVP-VA solid dispersion formulation in water, mice): 75.64%
- Percent Inhibition (NaPi-IIb; 30 mg/kg oral gavage, PVP-VA solid dispersion formulation in water, mice): 75.83%
- margin of NaPi-IIb inhibition with respect to inhibition of in vivo gastric emptying (gastric emptying): surprisingly advantageous margin

Structure (SMILES): CC1(C)CN(C(=O)CN)CCN1Cc1cccc(C(=O)Nc2sc3c(c2C(=O)Nc2cc(F)c(CCc4ccc(C(=O)O)cc4)c(F)c2)CCCC3)c1 [Example 6, 4-[2-[4-[[2-[[3-[[4-(2-aminoacetyl)-2,2-dimethyl-piperazin-1-yl]methyl]benzoyl]amino]-4,5,6,7-tetrahydrobenzothiophene-3-carbonyl]amino]-2,6-difluoro-phenyl]ethyl]benzoic Acid]
- Percent Inhibition (NaPi-IIb; [1]): 62%

Structure (SMILES): COCCN(CCOC)S(=O)(=O)N1CCN(Cc2cccc(C(=O)Nc3sc4c(c3C(=O)Nc3cc(F)c(CCc5ccc(C(=O)O)cc5)c(F)c3)CCCC4)c2)C(C)(C)C1 [Example 3, 4-[2-[4-[[2-[[3-[[4-[bis(2-methoxyethyl)sulfamoyl]-2,2-dimethyl-piperazin-1-yl]methyl]benzoyl]amino]-4,5,6,7-tetrahydrobenzothiophene-3-carbonyl]amino]-2,6-difluoro-phenyl]ethyl]benzoic Acid]
- IC50 (murine NaPi-IIb): 40.9 nM
